Data as given in ChEMBL document CHEMBL5244219, “Recent developments of quinolone-based derivatives and their activities against Escherichia coli” (Eur J Med Chem, 2018).
Values after ≈ are worked out from the molar mass of the structure shown.

Key:
[1] = system: Escherichia coli; assay: Antibacterial activity against Escherichia coli assessed as bacterial growth inhibition measured after 18 to 24 hrs by broth microdilution method; assay type: functional; settings: time 18-24 hrs
[2] = system: Escherichia coli; assay: Antibacterial activity against Escherichia coli assessed as bacterial growth inhibition; assay type: functional

Row | SMILES | MIC [1] [µg/mL] | MIC [2] [µg/mL]
1 | C[C@@H](N)[C@H]1CCN(c2nc3c(cc2F)c(=O)c(C(=O)O)cn3-c2ccc(O)cc2)C1 | < 0.05 | –
2 | N[C@@H]1[C@H]2CN(c3nc4c(cc3F)c(=O)c(C(=O)O)cn4-c3ccc(O)cc3)C[C@@H]12 | < 0.05 | –
3 | CC1CNCCN1c1nc2c(cc1F)c(=O)c(C(=O)O)cn2-c1ccc(O)cc1 (centres undefined) | < 0.05 | –
4 | CC(=O)c1cc2ccccc2n(/N=C/c2ccccc2[N+](=O)[O-])c1=O | – | 1.6 (≈ 4.77 µM)
5 | C[C@H]1COc2c(N3CCC4(CCN(C)C4)C3)c(F)cc3c(=O)c(C(=O)O)cn1c23 (some centres undefined) | – | 0.025 (≈ 0.0623 µM)
6 | COc1c(N2C[C@@H](N)C3(CC3)C2)c(F)cc2c(=O)c(C(=O)O)cn(-c3ccc(O)cc3)c12 | < 0.05 | –
7 | COc1c(N2C[C@@H]3[C@@H](N)[C@@H]3C2)c(F)cc2c(=O)c(C(=O)O)cn(-c3ccc(O)cc3)c12 | < 0.05 | –
8 | CC(=O)c1cc2cc([N+](=O)[O-])ccc2n(/N=C/c2cccc([N+](=O)[O-])c2)c1=O | – | 1.6 (≈ 4.21 µM)
9 | O=C(O)c1cn2c3c(c(Cl)c(F)cc3c1=O)SC(c1cccc(F)c1)C2 (centres undefined) | – | 0.12 (≈ 0.305 µM)
10 | CC1Cn2cc(C(=O)O)c(=O)c3cc(F)c(N4CCCC4)c(c32)S1 (centres undefined) | – | 0.12 (≈ 0.344 µM)
11 | CC1Cn2cc(C(=O)O)c(=O)c3cc(F)c(Cl)c(c32)S1 (centres undefined) | – | 0.12 (≈ 0.382 µM)
12 | CC1(C)S[C@@H]2[C@H](NC(=O)[C@H](N)c3ccc(O)cc3)C(=O)N2[C@H]1C(=O)O [AMOXICILLIN] | – | 2 (≈ 5.47 µM)
13 | CC1Cn2cc(C(=O)O)c(=O)c3cc(F)c(N4C(C)CNCC4C)c(c32)S1 (centres undefined) | – | 0.12 (≈ 0.307 µM)
14 | COc1cc(/C=N/n2c(=O)c(C(C)=O)cc3cc([N+](=O)[O-])ccc32)cc(OC)c1OC | – | 1.6 (≈ 3.76 µM)
15 | CC(=O)c1cc2ccccc2n(/N=C/c2ccc(C)cc2)c1=O | – | 1.6 (≈ 5.26 µM)
16 | COc1c(N2CCC(CN)C2)c(F)cc2c(=O)c(C(=O)O)cn(-c3ccc(O)cc3)c12 (centres undefined) | < 0.05 | –
17 | COc1c(N2C[C@@H](C)N[C@@H](C)C2)c(F)cc2c(=O)c(C(=O)O)cn(-c3ccc(O)cc3)c12 | < 0.05 | –
18 | N[C@@H]1CCC[C@@H]2CN(c3nc4c(cc3F)c(=O)c(C(=O)O)cn4-c3ccc(O)cc3)C[C@@H]21 | < 0.05 | –
19 | CC(=O)c1cc2cc(Cl)ccc2n(/N=C/c2ccc(C)cc2)c1=O | – | 1.6 (≈ 4.72 µM)
20 | C[C@H]1CN(c2nc3c(cc2F)c(=O)c(C(=O)O)cn3-c2ccc(O)cc2)C[C@H]1N | < 0.05 | –

Results, then the compound that gave them:

Row | MIC [1] [µg/mL] | MIC [2] [µg/mL] | SMILES
21 | < 0.05 | – | C[C@@H]1CN(c2cc3c(cc2F)c(=O)c(C(=O)O)cn3-c2ccc(O)cc2)C[C@H]1N
22 | < 0.05 | – | N[C@@H]1CN(c2nc3c(cc2F)c(=O)c(C(=O)O)cn3-c2ccc(O)cc2)CC12CC2
23 | < 0.05 | – | CN1CCC2CN(c3cc4c(cc3F)c(=O)c(C(=O)O)cn4-c3ccc(O)cc3)CC21 (centres undefined)
24 | – | ≤ 0.04 | COc1cc(OC)cc(-c2nn(CN3CCN(c4cc5c(cc4F)c(=O)c(C(=O)O)cn5[C@@H]4C[C@@H]4F)CC3)c(=S)n2-c2ccccc2)c1
25 | – | ≤ 0.04 | O=C(O)c1cn([C@@H]2C[C@@H]2F)c2cc(N3CCN(Cn4nc(-c5ccccc5O)n(-c5ccccc5)c4=S)CC3)c(F)cc2c1=O
26 | – | 0.12 (≈ 0.245 µM) | CC1Cn2cc(C(=O)O)c(=O)c3cc(F)c(N4CCN(Cc5ccc(F)cc5F)CC4)c(c32)S1 (centres undefined)
27 | – | ≤ 0.04 | O=C(O)c1cn([C@@H]2C[C@@H]2F)c2cc(N3CCN(Cn4nc(-c5ccncc5)n(-c5ccccc5)c4=S)CC3)c(F)cc2c1=O
28 | – | ≤ 0.04 | COc1cc(-c2nn(CN3CCN(c4cc5c(cc4F)c(=O)c(C(=O)O)cn5[C@@H]4C[C@@H]4F)CC3)c(=S)n2-c2ccccc2)cc(OC)c1OC
29 | < 0.05 | – | NC1CCN(c2cc3c(cc2F)c(=O)c(C(=O)O)cn3-c2ccc(O)cc2)C1 (centres undefined)
30 | – | ≤ 0.04 | COc1cc(OC)cc(-c2nn(CN3CCN(c4cc5c(cc4F)c(=O)c(C(=O)O)cn5[C@@H]4C[C@@H]4F)CC3)c(=S)n2Cc2ccccc2)c1
31 | < 0.05 | – | C[C@H]1CN(c2cc3c(cc2F)c(=O)c(C(=O)O)cn3-c2ccc(O)cc2)C[C@H]1N
32 | – | 0.12 (≈ 0.23 µM) | CC1Cn2cc(C(=O)O)c(=O)c3cc(F)c(N4CCN(Cc5ccccc5C(F)(F)F)CC4)c(c32)S1 (centres undefined)
33 | < 0.05 | – | COc1c(N2CC3CCN(C)C3C2)c(F)cc2c(=O)c(C(=O)O)cn(-c3ccc(O)cc3)c12 (centres undefined)
34 | < 0.05 | – | CN1CCC2CN(c3nc4c(cc3F)c(=O)c(C(=O)O)cn4-c3ccc(O)cc3)CC21 (centres undefined)
35 | < 0.05 | – | O=C(O)c1cn(-c2ccc(O)cc2)c2nc(N3CCNCC3)c(F)cc2c1=O
36 | < 0.05 | – | NC1CCN(c2nc3c(cc2F)c(=O)c(C(=O)O)cn3-c2ccc(O)cc2)C1 (centres undefined)
37 | < 0.05 | – | C[C@H](N)[C@H]1CCN(c2nc3c(cc2F)c(=O)c(C(=O)O)cn3-c2ccc(O)cc2)C1
38 | < 0.05 | – | N[C@@H]1CCC[C@@H]2CN(c3cc4c(cc3F)c(=O)c(C(=O)O)cn4-c3ccc(O)cc3)C[C@@H]21
39 | < 0.05 | – | C[C@@H]1C[C@H](N)CN1c1cc2c(cc1F)c(=O)c(C(=O)O)cn2-c1ccc(O)cc1
40 | < 0.05 | – | N[C@H]1CN(c2nc3c(cc2F)c(=O)c(C(=O)O)cn3-c2ccc(O)cc2)CC12CC2
41 | – | ≤ 0.04 | COc1ccc(-c2nn(CN3CCN(c4cc5c(cc4F)c(=O)c(C(=O)O)cn5[C@@H]4C[C@@H]4F)CC3)c(=S)n2-c2ccccc2)cc1OC
42 | – | 0.12 (≈ 0.271 µM) | O=C(O)c1cn2c3c(c(N4CCNCC4)c(F)cc3c1=O)SC(c1ccc(F)cc1)C2 (centres undefined)
43 | < 0.05 | – | O=C(O)c1cn(-c2ccc(O)cc2)c2cc(N3CC4CC3CN4)c(F)cc2c1=O (centres undefined)
44 | < 0.05 | – | COc1c(N2CCN(C)CC2)c(F)cc2c(=O)c(C(=O)O)cn(-c3ccc(O)cc3)c12
